Results from patent US6514997B2, “Antipicornaviral compounds and compositions, their pharmaceutical uses, and materials for their synthesis” (Agouron Pharmaceuticals, Inc., priority 1999, dated 2003).
Where two headings read alike, the source gives them in different places.

How the values were obtained:
coxsackievirus B5 (CVB5) = test: Anticoxsackieviral cell culture assay (EC50), CVB5; assay type: cell-based; conditions: Enterovirus B
[1] = tested on: strains of human rhinovirus (HRV); test: Antirhinoviral H1-HeLa cell culture assay (XTT cell protection, EC50), other HRV strains; assay type: cell-based, human rhinovirus in H1-HeLa cells; conditions: read-out: EC50
In short: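 H1-HeLa cells infected, or mock-infected, were incubated with compounds for two days. Cell protection measured by XTT/PMS formazan absorbance at 450/650 nm; TI taken as CC50 divided by EC50.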

[2] = tested on: Coxsackievirus type B3 (CVB3); test: Anticoxsackieviral cell culture assay (XTT, EC50), CVB3; assay type: cell-based, coxsackievirus B3 in H1-HeLa cells
Protocol: Anticoxsackieviral Cell Culture Assay:
Coxsackievirus types A-21 (CAV-21) and B3 (CVB3) were purchased from American Type Culture Collection (ATCC, Rockville, Md.). Virus stocks were propagated and antiviral assays were performed in H1-HeLa cells (ATCC). Cells were grown in minimal essential medium with 10% fetal bovine serum (Life Technologies, Gaithersburg, Md.). The ability of the compounds of this invention to protect cells against either CAV-21 or CVB3 infection was measured by the XTT dye reduction method. This method is described in Weislow et al., J. Natl. Cancer Inst. (1989), vol. 81, 577-586. H1-HeLa cells were infected with CAV-21 or CVB3 at a multiplicity of infection (m.o.i.) of 0.025 or 0.075, respectively, or mock-infected with medium only. H1-HeLa cells were plated at 4×10^4 cells per well in a 96-well plate and incubated with appropriate concentrations of the test compound. One day (CVB3) or two days (CAV-21) later, XTT/PMS was added to test plates and the amount of formazan produced was quantified spectrophotometrically at 450/650 nm. […] The therapeutic index (TI) was calculated by dividing the CC50 by the EC50.

H1-HeLa cells = test: Cytotoxicity (CC50) in mock-infected H1-HeLa cells, XTT dye reduction; assay type: cell-based, human
In short: (§1)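 H1-HeLa cells mock-infected, read by XTT/PMS formazan at 450/650 nm.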

[3] = as above; assay type: cell-based, human; conditions: human; for CC50: line of CVB2
In short: as §1

[4] = Human rhinovirus sp., H1-HeLa, HRV-Hanks
[5] = Human rhinovirus sp., HRV3, H1-HeLa, HRV-3
[6] = Human rhinovirus sp., HRV9, H1-HeLa, HRV-9
[7] = Human rhinovirus sp., HRV10, H1-HeLa, HRV-10
[8] = Human rhinovirus sp., HRV11, H1-HeLa, HRV-11
[9] = Human rhinovirus sp., HRV13, H1-HeLa, HRV-13
[10] = Human rhinovirus sp., HRV16, H1-HeLa, HRV-16
[11] = Human rhinovirus sp., HRV19, H1-HeLa, HRV-19
[12] = Human rhinovirus sp., HRV25, H1-HeLa, HRV-25
[13] = Human rhinovirus sp., HRV39, H1-HeLa, HRV-39
[14] = Human rhinovirus sp., HRV78, H1-HeLa, HRV-78
[15] = Human rhinovirus sp., HRV87, H1-HeLa, HRV-87
[16] = H1-HeLa cells, mock-infected, line of HRV-14
[17] = H1-HeLa cells, uninfected (mock-infected), line of CAV-21
[18] = H1-HeLa cells, uninfected (mock-infected)
[19] = H1-HeLa cells, uninfected (mock-infected), line of CVB3
[20] = H1-HeLa cells, mock-infected, HRV-14
[21] = mock-infected (uninfected) H1-HeLa cells, CAV-21
[22] = mock-infected (uninfected) H1-HeLa cells, CVB3

CCOC(=O)/C=C/[C@H](C[C@@H]1CCNC1=O)NC(=O)[C@H](CC)n1cccc(NC(=O)c2cc(C)on2)c1=O [Compound 26, trans-(2′S,3″″S,4S)-4-(2′-{3″-[(5′″-Methylisoxazole-3′″-carbonyl)amino]-2″-oxo-2″H-pyridin-1″-yl}butyrylamino)-5-(2″″-oxopyrrolidin-3″″-yl)pent-2-enoic Acid Ethyl Ester]
EC50 (coxsackievirus B5 (CVB5)): 18 nM | EC50 ([1]; H1-HeLa, HRV-1A): 14 nM | EC50 ([1]; H1-HeLa, HRV-2): 16 nM | EC50 ([1]; H1-HeLa, HRV-23): 40 nM | EC50 [1, 4]: 54 nM | EC50 [1, 5]: 29 nM | EC50 [1, 6]: 45 nM | EC50 [1, 7]: 27 nM | EC50 [1, 8]: 4 nM | EC50 [1, 9]: 58 nM | EC50 [1, 10]: 50 nM | EC50 [1, 11]: 65 nM | EC50 [1, 12]: 102 nM | EC50 [1, 13]: 47 nM | EC50 [1, 14]: 57 nM | EC50 [1, 15]: 21 nM | EC50 [2]: 16 nM | CC50 (H1-HeLa cells; line of CVB5): > 10 µM | CC50 (H1-HeLa cells; line of HRV-1A): > 10 µM | CC50 (H1-HeLa cells; line of HRV-2): > 10 µM | CC50 (H1-HeLa cells; line of HRV-3): > 10 µM | CC50 (H1-HeLa cells; line of HRV-9): > 10 µM | CC50 (H1-HeLa cells; line of HRV-10): > 10 µM | CC50 (H1-HeLa cells; line of HRV-11): > 10 µM | CC50 (H1-HeLa cells; line of HRV-13): > 10 µM | CC50 (H1-HeLa cells; line of HRV-16): > 10 µM | CC50 (H1-HeLa cells; line of HRV-19): > 10 µM | CC50 (H1-HeLa cells; line of HRV-23): > 10 µM | CC50 (H1-HeLa cells; line of HRV-25): > 10 µM | CC50 (H1-HeLa cells; line of HRV-39): > 10 µM | CC50 (H1-HeLa cells; line of HRV-78): > 10 µM | CC50 (H1-HeLa cells; line of HRV-87): > 10 µM | CC50 (H1-HeLa cells; line of HRV-Hanks): > 10 µM | CC50 at 2 days [3, 16]: > 10 µM | CC50 at 2 days [3, 17]: > 10 µM | CC50 [3, 18]: > 10 µM | CC50 at 1 day [3, 19]: > 10 µM

C#CC[C@@H](C(=O)N[C@H](/C=C/C(=O)OCC)C[C@@H]1CCNC1=O)n1cccc(NC(=O)c2cc(C)on2)c1=O [Compound 31, trans-(2′S,3″″S,4S)-4-(2′-{3″-[(5′″-Methyl-isoxazole-3′″-carbonyl)amino]-2″-oxo-2″H-pyridin-1″-yl}pent-4′-ynoyl-amino)-5-(2″″-oxopyrrolidin-3″″-yl)pent-2-enoic Acid Ethyl Ester]
EC50 (coxsackievirus B5 (CVB5)): 47 nM | EC50 ([1]; H1-HeLa, HRV-1A): 36 nM | EC50 ([1]; H1-HeLa, HRV-2): 13 nM | EC50 ([1]; H1-HeLa, HRV-23): 42 nM | EC50 [1, 4]: 49 nM | EC50 [1, 5]: 21 nM | EC50 [1, 6]: 44 nM | EC50 [1, 7]: 48 nM | EC50 [1, 8]: 5 nM | EC50 [1, 9]: 60 nM | EC50 [1, 10]: 38 nM | EC50 [1, 11]: 50 nM | EC50 [1, 12]: 87 nM | EC50 [1, 13]: 43 nM | EC50 [1, 14]: 61 nM | EC50 [1, 15]: 21 nM | EC50 [2]: 24 nM | CC50 (H1-HeLa cells; line of CVB5): > 10 µM | CC50 (H1-HeLa cells; line of HRV-1A): > 10 µM | CC50 (H1-HeLa cells; line of HRV-2): > 10 µM | CC50 (H1-HeLa cells; line of HRV-3): > 10 µM | CC50 (H1-HeLa cells; line of HRV-9): > 10 µM | CC50 (H1-HeLa cells; line of HRV-10): > 10 µM | CC50 (H1-HeLa cells; line of HRV-11): > 10 µM | CC50 (H1-HeLa cells; line of HRV-13): > 10 µM | CC50 (H1-HeLa cells; line of HRV-16): > 10 µM | CC50 (H1-HeLa cells; line of HRV-19): > 10 µM | CC50 (H1-HeLa cells; line of HRV-23): > 10 µM | CC50 (H1-HeLa cells; line of HRV-25): > 10 µM | CC50 (H1-HeLa cells; line of HRV-39): > 10 µM | CC50 (H1-HeLa cells; line of HRV-78): > 10 µM | CC50 (H1-HeLa cells; line of HRV-87): > 10 µM | CC50 (H1-HeLa cells; line of HRV-Hanks): > 10 µM | CC50 at 2 days [3, 16]: > 10 µM | CC50 at 2 days [3, 17]: > 10 µM | CC50 [3, 18]: > 10 µM | CC50 at 1 day [3, 19]: > 10 µM

CC[C@@H](C(=O)N[C@H](/C=C/C(=O)OCc1ccccc1)C[C@@H]1CCNC1=O)n1cccc(NC(=O)c2cc(C)on2)c1=O [Compound 62, trans-(2′S,3′″″S,4S)-4-[2′-(3″-{[1′″-(5″″-Methylisoxazol-3″″-yl)methanoyl]amino}-2′″oxo-2′″H-pyridin-1′″-yl)butanoylamino]-5-(2′″″-oxopyrrolidin-3′″″-yl)pent-2-enoic Acid Benzyl Ester]
EC50 ([1]; H1-HeLa, HRV-1A): 17 nM | EC50 ([1]; H1-HeLa, HRV-2): 45 nM | EC50 ([1]; H1-HeLa, HRV-23): 32 nM | EC50 [1, 4]: 52 nM | EC50 [1, 5]: 52 nM | EC50 [1, 6]: 130 nM | EC50 [1, 7]: 52 nM | EC50 [1, 8]: 10 nM | EC50 [1, 9]: 4 nM | EC50 [1, 10]: 53 nM | EC50 [1, 11]: 21 nM | EC50 [1, 12]: 18 nM | EC50 [1, 13]: 43 nM | EC50 [1, 14]: 57 nM | EC50 ([2]; H1-HeLa): 15 nM | CC50 (H1-HeLa cells; HRV-1A): > 10 µM | CC50 (H1-HeLa cells; HRV-2): > 10 µM | CC50 (H1-HeLa cells; HRV-3): > 10 µM | CC50 (H1-HeLa cells; HRV-9): > 10 µM | CC50 (H1-HeLa cells; HRV-10): > 10 µM | CC50 (H1-HeLa cells; HRV-11): > 10 µM | CC50 (H1-HeLa cells; HRV-13): > 10 µM | CC50 (H1-HeLa cells; HRV-16): > 10 µM | CC50 (H1-HeLa cells; HRV-19): > 10 µM | CC50 (H1-HeLa cells; HRV-23): > 10 µM | CC50 (H1-HeLa cells; HRV-25): > 10 µM | CC50 (H1-HeLa cells; HRV-39): > 10 µM | CC50 (H1-HeLa cells; HRV-78): > 10 µM | CC50 (H1-HeLa cells; HRV-Hanks): > 10 µM | CC50 at 2 days [3, 20]: > 10 µM | CC50 at 2 days [3, 21]: > 10 µM | CC50 at 1 day [3, 22]: > 10 µM

C#CC[C@@H](C(=O)N[C@H](/C=C/C(=O)OCc1ccccc1)C[C@@H]1CCNC1=O)n1cccc(NC(=O)c2cc(C)on2)c1=O [Compound 63, trans-(2′S,3′″″S,4S)-4-[2′-(3″-{[1′″-(5″″-Methylisoxazol-3″″-yl)methanoyl]amino}-2′″-oxo-2′″H-pyridin-1′″-yl)pent-4″-ynoylamino]-5-(2′″″-oxopyrrolidin-3′″″-yl)pent-2-enoic Acid Benzyl Ester]
EC50 ([1]; H1-HeLa, HRV-1A): 12 nM | EC50 ([1]; H1-HeLa, HRV-2): 24 nM | EC50 ([1]; H1-HeLa, HRV-23): 37 nM | EC50 [1, 4]: 400 nM | EC50 [1, 5]: 27 nM | EC50 [1, 6]: 65 nM | EC50 [1, 7]: 46 nM | EC50 [1, 8]: 17 nM | EC50 [1, 9]: 45 nM | EC50 [1, 10]: 46 nM | EC50 [1, 11]: 14 nM | EC50 [1, 12]: 7 nM | EC50 [1, 13]: 35 nM | EC50 [1, 14]: 34 nM | EC50 ([2]; H1-HeLa): 14 nM | CC50 (H1-HeLa cells; HRV-1A): > 10 µM | CC50 (H1-HeLa cells; HRV-2): > 10 µM | CC50 (H1-HeLa cells; HRV-3): > 10 µM | CC50 (H1-HeLa cells; HRV-9): > 10 µM | CC50 (H1-HeLa cells; HRV-10): > 10 µM | CC50 (H1-HeLa cells; HRV-11): > 10 µM | CC50 (H1-HeLa cells; HRV-13): > 10 µM | CC50 (H1-HeLa cells; HRV-16): > 10 µM | CC50 (H1-HeLa cells; HRV-19): > 10 µM | CC50 (H1-HeLa cells; HRV-23): > 10 µM | CC50 (H1-HeLa cells; HRV-25): > 10 µM | CC50 (H1-HeLa cells; HRV-39): > 10 µM | CC50 (H1-HeLa cells; HRV-78): > 10 µM | CC50 (H1-HeLa cells; HRV-Hanks): > 10 µM | CC50 at 2 days [3, 20]: > 10 µM | CC50 at 2 days [3, 21]: > 10 µM | CC50 at 1 day [3, 22]: > 10 µM
